For the experiment, the target named is recombinant human ATX (Homo sapiens, UniProt Q13822). In words: Choline detection assay for ATX. To be noted: for ATX activity (%) 1 μM: 1 μM test compound; for ATX activity (%) 1 μM / ATX activity (%) 10 Mm / ATX activity (%) 100 μM / ATX activity (%) 10 μM: activity without test compound = 100%; for ATX activity (%) 10 Mm: 10 μM test compound as printed; for ATX activity (%) 100 μM: 100 μM test compound; for ATX activity (%) 10 μM: 10 μM test compound; for ATX inhibition (in words): compounds synthesized from D-tyrosine. Type of experiment: biochemical. The protocol: The phosphonate derivatives were tested in choline detection assay for ATX inhibition. The ATX activity assay was conducted in 0.1 ml, buffer: (in mM: Tris-HCl 100, pH9, NaCl 150, MgCl2 5, CoSO4 0.03, 0.05% Triton X-100), 1 mM 18:1 LPC, using recombinant human ATX with or without test compounds; incubation was for 16 hours at 37° C. The released choline was detected as follows: Samples were mixed with 0.15 ml of 50 mM TrisHCl containing 2.7 mM TOOS(N-ethyl-N-2-hydroxy-3-sulfopropyl)-m-toluidine, 2.7 mM 4-AAP (4-aminoantipyrine), 47.7 U/ml horseradish peroxidase, 18 U/ml choline oxidase, and 5 mM MgCl2. After 30 min incubation at 37° C., light absorbance (550 nm) was determined, and the amount of choline release was calculated from a standard curve.
The ATX activity was measured in the presence of the test compounds under different concentrations (100 μM, 10 μM and 1 μM). The ATX activity without TEST compounds was used as the standard (100% activity). Some β-hydroxy phosphonate derivatives inhibited ATX activity at only the highest concentration tested. […] These two compounds were synthesized from protected L-tyrosine and they are diastereomers. The less polar isomer, f17, (also known as VPC8a202) was able to inhibit 73% of ATX activity at 1 μM.

[1] abbreviates: table of g1-g15 (β-keto phosphonates).

Take `CCCCCCCCCCCCCCCC(=O)N[C@@H](Cc1ccc(OCc2ncc(C)c(OC)c2C)cc1)C(O)CP(=O)(O)O` (single isomer, unassigned) [f18]: for the setting “Table 1 (f1-f34)”, the “ATX activity (%) 1 μM” value is recorded as 63%, the “ATX activity (%) 10 Mm” value is given as 21% and the “ATX activity (%) 100 μM” value stood at 8%. Where the note is “at 1 μM”, the “inhibition of ATX (in words)” value was “significant inhibition”.
For the compound `CCCCCCCCCCCCCCCC(=O)N[C@H](Cc1ccc(OCCC)cc1)C(=O)CP(=O)(O)O` [g10], under setting [1], the “ATX activity (%) 1 μM” value worked out at 104%, the “ATX activity (%) 10 μM” value was 97% and the “ATX activity (%) 100 μM” value turned out to be 75%.
As to `CCCCCCCCCCCCCCCC(=O)N[C@@H](Cc1ccc(OCc2ccccc2)cc1)C(O)CP(=O)(O)O` (single isomer, unassigned) [f8], the “ATX activity (%) 1 μM” value (Table 1 (f1-f34), 1 µM) is listed as 76%. Moreover, the “ATX activity (%) 10 Mm” value (Table 1 (f1-f34)) amounted to 83%. The “ATX activity (%) 100 μM” value (Table 1 (f1-f34), 100 µM) was 78%.
Turning to `CCCCCCCCCCCCCCCC(=O)N[C@H](Cc1ccc(OC)cc1)C(=O)CP(=O)(O)O` [g8], under setting [1], the “ATX activity (%) 1 μM” value was found to be 84%, the “ATX activity (%) 10 μM” value is 71% and the “ATX activity (%) 100 μM” value is on record as 32%.
For the compound `CCCCCCCCCCCCCCCC(=O)N[C@H](Cc1ccc(OCCCCC)cc1)C(O)CP(=O)(O)O` (single isomer, unassigned) [f27], the “ATX activity (%) 1 μM” value (Table 1 (f1-f34), 1 µM) stood at 81%. The “ATX activity (%) 10 Mm” value (Table 1 (f1-f34)) was 85%. Besides, the “ATX activity (%) 100 μM” value (Table 1 (f1-f34), 100 µM) was 80%.
Regarding `CCCCCCCCCCCCCCCC(=O)N[C@H](Cc1ccc(OCc2ncc(C)c(OC)c2C)cc1)C(O)CP(=O)(O)O` (single isomer, unassigned) [f15], the “ATX inhibition (in words)” value was “did potently inhibit ATX”. For the same compound, the “ATX activity (%) 1 μM” value (Table 1 (f1-f34), 1 µM) worked out at 108%. Further, the “ATX activity (%) 10 Mm” value (Table 1 (f1-f34)) came out at 95%. The “ATX activity (%) 100 μM” value (Table 1 (f1-f34), 100 µM) is recorded as 63%.
For `CCCCCCCC/C=C\CCCCCCCC(=O)N[C@@H](Cc1ccc(OCc2ncc(C)c(OC)c2C)cc1)C(O)CP(=O)(O)O` (single isomer, unassigned) [f41], for the setting “Table 2 (f35-f44), 10 µM”, the “ATX activity (%) 10 μM” value was 45%. The “ATX activity (%) 100 μM” value (Table 2 (f35-f44), 100 µM) is given as 15%.
On to `CCCCCCCCCCCCCCCCCCCC(=O)NC(Cc1ccc(OCc2ncc(C)c(OC)c2C)cc1)C(O)CP(=O)(O)O` (single isomer, unassigned) [f43], for which, for the setting “Table 2 (f35-f44)”, the “ATX activity (%) 1 μM” value stood at 64%, the “ATX activity (%) 10 μM” value worked out at 45% and the “ATX activity (%) 100 μM” value came to 10%.
For `CCCCCCCCCCCCCCCC(=O)N[C@H](Cc1ccc(OCc2ccccc2)cc1)C(=O)CP(=O)(O)O` [g3], under setting [1], the “ATX activity (%) 10 μM” value came to 82% and the “ATX activity (%) 100 μM” value is listed as 76%.
As for `CCCCCCCCCCCCCCCC(=O)N[C@H](Cc1ccc(OC)cc1)C(O)CP(=O)(O)O` (single isomer, unassigned) [f20], for the setting “Table 1 (f1-f34), 1 µM”, the “ATX activity (%) 1 μM” value worked out at 95%. For the setting “Table 1 (f1-f34)”, the “ATX activity (%) 10 Mm” value is on record as 84%. Besides, the “ATX activity (%) 100 μM” value (Table 1 (f1-f34), 100 µM) amounted to 82%.
With `CCCCCCCCCCCCCCCC(=O)N[C@H](Cc1ccc(OCc2ncc(C)c(OC)c2C)cc1)C(O)CP(=O)(O)O` (single isomer, unassigned) [f16], the “ATX inhibition (in words)” value is “did potently inhibit ATX”. Also, the “ATX activity (%) 1 μM” value (Table 1 (f1-f34), 1 µM) was determined as 69%. Further, for the setting “Table 1 (f1-f34)”, the “ATX activity (%) 10 Mm” value was 64%. The “ATX activity (%) 100 μM” value (Table 1 (f1-f34), 100 µM) is listed as 47%.
Take `CCCCCCCCCCCCCCCC(=O)N[C@H](Cc1ccc(OCCC)cc1)C(O)CP(=O)(O)O` (single isomer, unassigned) [f23]: the “ATX activity (%) 1 μM” value (Table 1 (f1-f34), 1 µM) is given as 80%. In addition, the “ATX activity (%) 10 Mm” value (Table 1 (f1-f34)) was determined as 79%. For the same compound, under “Table 1 (f1-f34), 100 µM”, the “ATX activity (%) 100 μM” value came out at 72%.
Take `CCCCCCCC/C=C\CCCCCCCC(=O)N[C@@H](Cc1ccc(OCc2ncc(C)c(OC)c2C)cc1)C(O)CP(=O)(O)O` (single isomer, unassigned) [f42]: where the note is “Table 2 (f35-f44)”, the “ATX activity (%) 1 μM” value is 77%. The “ATX activity (%) 10 μM” value (Table 2 (f35-f44), 10 µM) turned out to be 68%. Moreover, the “ATX activity (%) 100 μM” value (Table 2 (f35-f44), 100 µM) is on record as 58%.
Regarding `CCCCCCCCCCCCCCCC(=O)N[C@@H](Cc1ccc(OCc2ncc(C)c(OC)c2C)cc1)C(=O)CP(=O)(O)O` [g7], under setting [1], the “ATX activity (%) 1 μM” value amounted to 71%, the “ATX activity (%) 10 μM” value is listed as 74% and the “ATX activity (%) 100 μM” value stood at 26%.

These data come from patent US8378100B2, “Phosphonate derivatives as autotaxin inhibitors” (University of Virginia Patent Foundation, priority 2008, dated 2013).
